Experimental findings from US11307205B2, “Non-radioactive cytotoxicity assays” (University of Southern California, priority 2016, dated 2022) are described below.

The test system of one assay is 293FT cells. The assay can be described thus: Matador assay, Digitonin-induced death of transiently transfected 293FT cells. Format: cell-based. Here is the method: The 293FT cells were transfected in a 24-well plate with various expression plasmids (500 ng/well) using calcium phosphate. Approximately, 18 hours post-transfection, the cells were either left untreated or treated with 30 μg/ml Digitonin to induce cell death, followed by the detection of luminescence as described under luciferase assays.
293FT cells were transfected with pLenti-CBGRluc construct in a […]. 72 hours post-transfection, cells were trypsinized and plated in 6-well plates. For induction of cell death, cells in some wells were treated with Digitonin (50 μg/mL final concentration). CBGRluc activity was determined by adding assay buffer (1 mM D-Luciferin, 25 mM glycylclycine, 15 mM potassium phosphate, 15 mM MgSO4, 4 mM EGTA, 2 mM ATP, and 1 mM DTT) in a well mode. The assay buffer with substrate was added at 1:1 (v/v) ratio.
The MLuc7 cDNA also carried M43L and M110L substitutions. […] The mammalian expression vectors encoding the non-secretory forms of the above luciferase cDNAs were transiently transfected into 293FT cells by calcium phosphate co-precipitation method. […] 6 wells were treated with Digitonin and 6 wells were left untreated. Luciferase activity was measured by addition of coelentrazine containing assay buffer directly to each well.
The indicated luciferase constructs in either retroviral or lentiviral vectors were transiently transfected into 293FT cells by calcium phosphate co-precipitation method. Approximately 18 hours post-transfection, cells were treated with Digitonin for 90 minutes or left untreated (control). […] Essentially a similar procedure was used with a construct encoding Lucia-Luc.
293FT cells were transiently transfected with the above construct or left untransfected. Approximately 18 hours post-transfection, cells were treated for 90 min with Digitonin (final concentration 30 μg/ml) or left untreated. After the 90 minute incubation, 200 μl supernatant was collected from each well in a 1.5 ml tubes. The tubes were spun down at 1500 RPM for 5 minutes.
We next examined if the Matador cytotoxicity assay developed by us is limited to only luciferase proteins or can be adapted to any other protein that is not endogenously expressed by the target cells. For this purpose, we transiently transfected 293FT cells by calcium phosphate co-precipitation method with an expression plasmid encoding enhanced green fluorescent protein (GFP) or HA-epitope tagged-mCherry. Approximately 24 post-transfection, the transfected cells were either left untreated or treated with Digitonin to induce cell death. The cells were collected in tubes and centrifuged at 2,000 rpm for 5 min. Cell supernatant was collected in a new set of tubes and cell pellet were washed with cold phosphate-buffered saline twice and lysed in lysis buffer containing 20 mM Tris-HCl, pH 8.0, 500 mM NaCl, 0.25% Triton X-100, 1 mM EDTA, 10 mM β-glycophosphate, 10 mMNaF, 1 mM DTT, 1× protease inhibitor mixture (Roche Molecular Biochemicals) at 4° C. for 30 min. After incubation, the mixture was pippetted five or six times to disperse the cells followed by centrifugation at 14,000 rpm at 4° C. for 10 min. The cell lysates were collected as whole cell extracts, and protein concentration was determined by using Bio-Rad protein assay reagent. 30 μl of cell supernatant or 30 μg of whole cell extracts were heated in the presence of SDS-PAGE sample buffer and loaded on 10% SDS-PAGE gel followed by transferring to nitrocellulose membranes. These membranes were incubated with primary antibodies against specified proteins in Tris-buffered-saline with Tween 20 followed by incubation with secondary antibody (IRDye 800CW conjugates of goat anti-rabbit IgG; Li-Cor) and development with Odyssey Infrared Imaging System CLx (Li-Cor Biosciences). The secondary antibody was used at a 1:10,000 dilution.

Assay [1] relates to primary leukemia blast cells (Chrt3). The experiment in a line: Matador assay on primary leukemia blast cells expressing GLuc. Format: cell-based. The following applies: two additional primary leukemia samples; Digitonin; present tense.
Method: To examine if this assay can be also used to measure death of primary cells, leukemic blasts were isolated from a de-identified leukemia patient using Ficoll-Hypaque gradient centrifugation and then transduced with pLenti-EF1a-Pac-T2A-Gluc-B07 (SEQ ID NO: 94) lentiviral vector to generate primary leukemia blast cells (Chrt3) expressing the non-secretory form of GLuc cDNA. Briefly, 1 million primary leukemic blasts were cultured in XVIVO medium in a 6-well plate in the presence of GLuc lentiviral supernatant and polybrene (5 μg/ml) and centrifuged at 2,800 rpm at 32° C. for 2 hours followed by incubation of cells at 37° C. for 24 hours in XVIVO medium. To measure the killing of Chrt3-GLuc cells, the transduced cells were plated at a density of 20,000 cells per well in 30 μl of medium in triplicate in a white 384 well plate and co-cultured with the effector cells for 4 hours at an E:T ratio of 0.125:1. Cell death was assayed by the single-step homogenous GLuc assay by injecting 0.5×CTZ assay buffer in well mode. […] Two additional primary leukemia samples are infected with GLuc encoding lentiviral vector and cell death is induced by treatment with Digitonin.

For `C[C@@H]1CC[C@@]2(OC1)O[C@H]1[C@@H](O)[C@H]3[C@@H]4CC[C@H]5C[C@@H](O[C@@H]6O[C@H](CO)[C@H](O[C@@H]7O[C@H](CO)[C@@H](O)[C@H](O[C@@H]8OC[C@@H](O)[C@H](O)[C@H]8O)[C@H]7O[C@@H]7O[C@H](CO)[C@H](O)[C@H](O[C@@H]8O[C@H](CO)[C@@H](O)[C@H](O)[C@H]8O)[C@H]7O)[C@H](O)[C@H]6O)[C@H](O)C[C@]5(C)[C@H]4CC[C@]3(C)[C@H]1[C@@H]2C` [Digitonin], the luciferase activity entry is reported as “increase in luciferase activity” in the assay with 293FT cells (FfLuc construct, Digitonin 30 μg/ml, 90 min, supernatant) and “increase in luciferase activity” with 293FT cells (transfected with HtLuc, LoLuc, MLuc7, Digitonin). Also, in the assay on 293FT cells (GFP and mCherry-HA transfected, Digitonin), the “fluorescence in cell supernatant” value was “significant increase in fluorescence”. Moreover, the “GFP release in the supernatant fraction (Western blotting)” value in the assay on 293FT cells (GFP transfected, Digitonin) is “increase in GFP release in the supernatant fraction”. Further, the “mCherry release in the supernatant fraction (Western blotting)” value in the assay on 293FT cells (HA-mCherry transfected, Digitonin) is recorded as “increase in mCherry release in the supernatant fraction”. Also, in the assay on 293FT cells (LucPPe-146-1H2 transient transfection, Digitonin), the LucPPe luciferase activity entry is recorded as “increase in LucPPe luciferase activity”. In addition, in the assay with 293FT cells (MYR-GGS-GLuc construct, Digitonin 30 μg/ml, 90 min, supernatant), the Luc activity entry is on record as “increase in Luc activity”. Moreover, the “increase in alkaline phosphatase activity in the cell supernatants” value in the assay on 293FT cells (constructs encoding human embryonal alkaline phosphatase lacking the secretory signal, Digitonin 90 min) is “greater than 3 fold”. For the same compound, in the assay with 293FT cells (empty vector or plasmid encoding the secretory form of human embryonal alkaline phosphatase, Digitonin 90 min), the alkaline phosphatase activity entry is “little or no increase”. In addition, the CBGRluc activity result in the assay on 293FT cells (pLenti-CBGRluc transfected, Digitonin 50 μg/mL) was “increase in CBGRluc activity”. Also, the “luciferase activity in the cell-free supernatants” value in the assay on 293FT cells (transfected with GLuc, NLuc, MLuc7, TLuc16, Paluc1, Htluc1, Loluc, RLuc, Lucia-Luc, Digitonin 90 minutes) is on record as “increase in luciferase activity”. The GLuc activity entry in assay [1] is reported as “increase in GLuc activity”.
